We go through 2 compounds from US10570125B2, “(Cyano-dimethyl-methyl)-isoxazoles and -[1,3,4]thiadiazoles” (Centrexion Therapeutics Corporation, priority 2013, dated 2020).

pEC50: −log10 of the molar value.

One data set concerns the target human CB1R (Homo sapiens (Human), UniProt P21554). Put plainly: CB1 cAMP (assay 2). Type of data set: cell-based. Conditions: CHO cells expressing human CB1R; inhibition of forskolin-stimulated cAMP.
The target of another data set is human MDR1 P-gp (Homo sapiens (Human), UniProt P08183). Put plainly: MDCK assay: efflux in MDCK-MDR1 cell monolayers (assay 3). Conditions: pH 7.4, 37° C. The class given is in vitro ADME. The procedure: C. Assessment of Efflux in Madin-Darby Canine Kidney Cells Transfected with the Human MDR1 Gene (MDCK Assay) (Assay 3)
Apparent permeability coefficients (PE) of the compounds across the MDCK-MDR1 cell monolayers are measured (pH 7.4, 37° C.) in apical-to-basal (AB) and basal-to-apical (BA) transport direction. AB permeability (PEAB) represents drug absorption from the blood into the brain and BA permeability (PEBA) drug efflux from the brain back into the blood via both passive permeability as well as active transport mechanisms mediated by efflux and uptake transporters that are expressed on the MDCK-MDR1 cells, predominantly by the overexpressed human MDR1 P-gp. The compounds are assigned to permeability/absorption classes by comparison of the AB permeabilities with the AB permeabilities of reference compounds with known in vitro permeability and oral absorption in the human. Identical or similar permeabilities in both transport directions indicate passive permeation, vectorial permeability points to additional active transport mechanisms. Higher PEBA than PEAB indicates the involvement of active efflux mediated by MDR1 P-gp. Active transport is concentration-dependently saturable. MDCK-MDR1 cells (1-2×10e5 cells/1 cm2 area) are seeded on filter inserts (Costar transwell polycarbonate or PET filters, 0.4 μm pore size) and cultured (DMEM) for 7 days. […]

human MDR1 P-gp, sequence (P08183 whole entry): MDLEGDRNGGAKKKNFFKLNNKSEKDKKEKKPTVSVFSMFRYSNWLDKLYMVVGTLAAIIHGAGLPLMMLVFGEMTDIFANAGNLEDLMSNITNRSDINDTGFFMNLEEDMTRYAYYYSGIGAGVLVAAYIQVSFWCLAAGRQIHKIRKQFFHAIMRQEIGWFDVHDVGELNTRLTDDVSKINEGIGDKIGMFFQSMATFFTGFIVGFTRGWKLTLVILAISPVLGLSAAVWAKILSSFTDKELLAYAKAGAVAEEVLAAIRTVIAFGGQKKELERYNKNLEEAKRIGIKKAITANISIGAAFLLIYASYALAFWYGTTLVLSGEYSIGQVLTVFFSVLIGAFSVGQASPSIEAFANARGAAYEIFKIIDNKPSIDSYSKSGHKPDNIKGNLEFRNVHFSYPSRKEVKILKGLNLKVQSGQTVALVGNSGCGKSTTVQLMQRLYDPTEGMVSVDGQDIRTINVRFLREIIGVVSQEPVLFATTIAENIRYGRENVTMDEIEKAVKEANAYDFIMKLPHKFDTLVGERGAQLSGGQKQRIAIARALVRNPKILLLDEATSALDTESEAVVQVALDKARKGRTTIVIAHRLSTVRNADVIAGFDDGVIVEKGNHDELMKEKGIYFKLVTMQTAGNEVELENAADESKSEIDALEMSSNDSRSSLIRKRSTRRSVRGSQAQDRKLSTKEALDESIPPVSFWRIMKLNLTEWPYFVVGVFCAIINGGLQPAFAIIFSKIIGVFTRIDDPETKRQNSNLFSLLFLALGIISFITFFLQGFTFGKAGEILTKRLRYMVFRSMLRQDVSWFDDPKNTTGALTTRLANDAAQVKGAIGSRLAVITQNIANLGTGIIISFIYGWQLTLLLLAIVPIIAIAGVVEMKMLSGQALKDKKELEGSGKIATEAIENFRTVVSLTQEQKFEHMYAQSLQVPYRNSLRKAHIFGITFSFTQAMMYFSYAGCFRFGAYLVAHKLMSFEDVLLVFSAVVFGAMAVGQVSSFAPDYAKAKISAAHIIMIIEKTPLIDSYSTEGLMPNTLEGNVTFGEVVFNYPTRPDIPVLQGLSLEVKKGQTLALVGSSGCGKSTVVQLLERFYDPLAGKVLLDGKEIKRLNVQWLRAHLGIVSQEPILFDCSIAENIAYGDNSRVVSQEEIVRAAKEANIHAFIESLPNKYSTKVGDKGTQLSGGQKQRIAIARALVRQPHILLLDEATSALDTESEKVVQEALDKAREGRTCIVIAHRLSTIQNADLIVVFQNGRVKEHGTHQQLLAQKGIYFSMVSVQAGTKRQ
human CB1R, sequence (P21554 whole entry): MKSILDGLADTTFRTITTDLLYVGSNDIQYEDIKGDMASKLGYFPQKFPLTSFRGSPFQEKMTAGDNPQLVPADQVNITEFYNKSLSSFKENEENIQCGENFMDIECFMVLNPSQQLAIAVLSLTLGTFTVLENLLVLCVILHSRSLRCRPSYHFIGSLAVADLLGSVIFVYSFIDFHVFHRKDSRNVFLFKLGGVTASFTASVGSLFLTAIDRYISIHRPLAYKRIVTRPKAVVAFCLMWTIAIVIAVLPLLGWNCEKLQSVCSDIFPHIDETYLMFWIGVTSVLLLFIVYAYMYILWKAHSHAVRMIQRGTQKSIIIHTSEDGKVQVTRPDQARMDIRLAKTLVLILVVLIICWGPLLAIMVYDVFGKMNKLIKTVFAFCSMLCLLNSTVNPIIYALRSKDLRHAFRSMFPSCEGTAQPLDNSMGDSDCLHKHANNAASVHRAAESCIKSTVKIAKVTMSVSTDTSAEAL

For the compound `CC(C)(O)c1cc(NC(=O)C(C)(C)S(=O)(=O)CCCC(F)(F)F)on1` [Example 134 in WO2010036630], the pEC50 at human CB1R is 4.59. The “MDCK efflux ratio (BA/AB)” value on human MDR1 P-gp came out at 3.2.
As for `CC(C)(CO)c1cc(NC(=O)C(C)(C)S(=O)(=O)CCCC(F)(F)F)on1` [Example 7 WO2010036630], the negative logarithm of the EC50 (pEC50) at human CB1R is 4.55. Besides, the efflux ratio on human MDR1 P-gp (dog, read-out: MDCK efflux ratio (BA/AB)) worked out at 6.9.

What is called pEC50 is the negative decadic logarithm of the EC50, by convention in mol/L. High values mean a low EC50, low ones a high EC50.
